The results in this text go back to a melting point compilation (Tetko et al.; mined from patent text by program, amines drawn as free bases though some values may be those of a salt).

The term melting point denotes the temperature of the solid-liquid transition.

`O=c1c(-c2ccccc2)nc2ccccc2n1CC(F)F` had a melting point of 85 to 88 °C.

`CC(=O)OCCCn1cc(C2=C(c3ccccc3[N+](=O)[O-])C(=O)NC2=O)c2ccccc21` returned a melting point of 77 to 78 °C.

The compound `CCOc1c(C)cc2c(c1C)C1(C)Cc3ccccc3C1=N2` (stereo not drawn) gave a melting point of 164 °C.

The compound `O=C(NCCO)c1csc(C(=O)NCCO)n1` returned a melting point of 155 to 158 °C.

Take `COc1ccc(CC2SC(=O)NC2=O)cc1C(=O)NCc1ccc(C(F)(F)F)cc1` (stereo not drawn): the melting point is 176 to 178 °C.

Compound `C=CCOCC1CC(N)c2cc(S(N)(=O)=O)sc2S1(=O)=O` (stereo not drawn) returned a melting point of 167 to 168 °C.

Turning to `COc1ccc(-c2cc(C(=O)Nc3ccc(CCN(C)Cc4ccc(OC)c(OC)c4)cc3)c3ccccc3n2)cc1`, the melting point is 114 °C.

`Nc1ccc2c(S(=O)(=O)c3ccccc3)c[nH]c2c1` gave a melting point of 144 to 146 °C.

`COc1cc(OC)c2sc(-c3c(F)cccc3F)nc2c1` came in with a melting point of 136 to 138 °C.

In the case of `CC(C)(C)NC(=O)N1CCn2c(C#N)c(-c3cccc(F)c3)c(C(N)=O)c2C1`, the melting point was over 217 °C.

As to `NC(=O)c1c(OCc2ccccc2)ccc2ccccc12`, the melting point was 153 to 154 °C.

`C=CC1(NC(=O)OC)CC(C)(C)CC(C)(C)C1` gave a melting point of 61 to 63 °C.

Compound `CC(=O)NC(Oc1ccccc1)C(=O)NCc1ccccc1` (stereo not drawn) registered a melting point of 125 to 128 °C.

Compound `Clc1ccccc1-c1nc(-c2ccc3c(c2)OCO3)c(-c2ccc3c(c2)OCO3)[nH]1` had a melting point of 168 to 170 °C.

Consider `Cc1cc(NS(=O)(=O)c2ccccc2)cc(C)c1S(=O)C[N+](=O)[O-]` (stereo not drawn), for which the melting point was over 50 °C.

Turning to `CC(Oc1ccc(Cl)cc1)c1ccnn2cnnc12` (stereo not drawn), the melting point was in the range of 98 to 99 °C.

With `CSCC(C)NC(=O)c1c(I)cccc1C(=O)Nc1ccc(C2(c3ccc(Cl)cc3)CC2(F)F)cc1C` (stereo not drawn), the melting point lay in the range of 229 to 232 °C.

Turning to `CC(=O)OC1CN(c2c(F)cc3c(=O)c(C(=O)O)cn(C4CC4)c3c2F)C1`, the melting point lay in the range of 259 to 262 °C.

As for `CC(OC=O)C1C(=O)N([Si](C)(C)C(C)(C)C)C1CC(=O)O` (mixture of isomers), the melting point fell in the range of 109 to 110 °C.

As to `Cc1cc(C2=NNC(=O)CC2)ccc1CCCCNC(=O)c1cccnc1`, the melting point was 160 to 161 °C.

As to `Cc1c(NC(=O)CC(C)(C)C)cc2c(c1C)OC(C)(C)C2(O)c1cccc(C(C)O)c1` (stereo not drawn), the melting point was 206 to 207 °C.

Turning to `Nc1ccc(Cn2cc(C(F)(F)F)ccc2=O)cc1`, the melting point is 97 to 98 °C.

Consider `COC(=O)c1c(Cc2ccc(C(=O)N(C)C)nc2)c(=O)c2ccc(C)nc2n1-c1ccccc1`, for which the melting point was in the range of 235 to 236 °C.

`Cn1cc(C(=O)O)c(=O)c2oc3ccc(Cl)cc3c(=O)c21` registered a melting point of 295 to 297 °C.

Regarding `COC(=O)c1nn(C)c2ccccc12`, the melting point lay in the range of 78 to 79 °C.

On to `COc1ccc(C=CC(=O)NO)cc1OC`, for which the melting point fell in the range of 183 to 185 °C.

Consider `CCc1ccccc1S(=O)(=O)c1cc(N)c2ncccc2c1[N+](=O)[O-]`, for which the melting point was in the range of 213 to 216 °C.

For the compound `CC(C)(C)c1nnc(-c2ccccn2)[nH]c1=O`, the melting point lay within 114 to 115 °C.

Regarding `CC1(C)Oc2ccc(C#N)cc2[C@@H](NC(=NC#N)N2CCN(Cc3ccccc3)CC2)[C@@H]1O` (relative stereo), the melting point fell in the range of 205 to 207 °C.

The compound `CC(C)(O)c1ccc(-c2ccc(N3C[C@H](Cn4ccnn4)OC3=O)cc2F)cn1` displayed a melting point of 180 °C.

`O=C/C=C/C=C(c1ccccc1)c1ccccc1` registered a melting point of 71 to 72 °C.

The compound `C=CCCC(Oc1ccc(C(=O)Cl)cc1)C1CCCCC1` (stereo not drawn) displayed a melting point of 22 to 25 °C.

Compound `CCN(CCNC(=O)c1n[nH]cc1NC(=O)c1cccc(C)n1)c1cccc(C)c1` gave a melting point of 203 to 205 °C.

In turn, `CCNC1=NN(c2ccc(Cl)cc2)CC1C` (stereo not drawn) gave a melting point of 63 to 64 °C.

Turning to `CC(C)C#CC1(C(F)(F)F)OCC(=O)Nc2ccc(Cl)cc21` (stereo not drawn), the melting point lay in the range of 183 to 184 °C.

With `CSC1NC(N)=CC(=O)N1C` (stereo not drawn), the melting point was 255 °C.

`CC(C)c1ccc(O)c(C(C)C)c1NC(=O)CN1CCN(CCSc2nc3ccccc3o2)CC1` showed a melting point of 96 to 98 °C.

Compound `COc1ccc(C=CC(C)=O)cc1` returned a melting point of 74 °C.

In turn, `COc1ccc(-c2cncc(OC3SCC(OC(C)=O)C(OC(C)=O)C3OC(C)=O)c2)cc1Cl` (stereo not drawn) registered a melting point of 155 °C.

`CCOC(=O)N1CCC(=C2c3sccc3C=Cn3ccnc32)CC1`: the melting point was 176 °C.

The compound `O=C(CCn1ccnc1)Cc1c(Cl)cccc1Cl` displayed a melting point of 98.5 to 102 °C.

In the case of `CCCN(CCC)Cc1nnc(-c2ncn3c2CN(C)C(=O)c2c(Cl)cccc2-3)o1`, the melting point lay in the range of 188 to 195 °C.

With `Cc1cccc(C)c1CCC(CCc1c[nH]cn1)CCc1c(C)cccc1C`, the melting point was in the range of 147 to 150 °C.

Compound `CNC(=O)OC(C(Oc1ccc(Cl)cc1Cl)n1cncn1)C(C)(C)CF` (stereo not drawn) showed a melting point of 124 to 127 °C.

Turning to `CCc1ccc2c(O)cnn2c1`, the melting point was 78 to 79 °C.

`Cc1cccc2ncc(C(=O)NC(C)(C)CC(C)(C)C)c(=O)n12` came in with a melting point of 126 to 129 °C.

For the compound `CC1(C)Oc2ccc(C#N)cc2[C@@H](N2CCCC2=NC#N)[C@@H]1O` (relative stereo), the melting point lay within 246 to 247 °C.

Regarding `COc1ccc(-n2c(-c3sc(NC(=O)c4ccccc4)nc3-c3ccccc3)nc3ccccc3c2=O)cc1`, the melting point was over 275 °C.

`O=C(CBr)c1cccc(OCc2ccc3ccc(Cl)cc3n2)c1` returned a melting point of 110 to 112 °C.

`CNS(=O)(=O)c1ccc2c3c(cc([N+](=O)[O-])c2c1)N(C(=O)c1cc2cc(OCCN(C)C)ccc2[nH]1)CC3CCl` (stereo not drawn): the melting point was over 350 °C.

In turn, `CC(C)(C)OC(=O)NCC(O)c1ccccc1` (stereo not drawn) returned a melting point of 123 to 124 °C.

As for `COc1cc2nc(N)nc(-c3cc(-c4ccccc4)cc(-c4ccc(O)cc4)c3)c2cc1OC`, the melting point is 255 to 257 °C.

Turning to `CCn1ncnc1COc1nn2c(-c3ccc(F)cc3)nncc2c1-c1ccccc1F`, the melting point turned out to be 179 °C.

In the case of `Cn1ncc(/C=C/C(=O)Nc2ccc(OCc3nnco3)cc2)c1-c1ccc(F)cc1`, the melting point was 154 to 155 °C.

For the compound `CCOC(=O)c1c(N2CCC(N(C)C)C2)c2cc(C)ccc2n(Cc2ccccc2)c1=O` (stereo not drawn), the melting point was over 40 °C.

`CCOC(=O)c1ccc(NCCCc2ccc(OCc3ccccc3)cc2)cc1` came in with a melting point of 98 to 107 °C.

`Cc1c(SCCCSc2ccc3ncc([N+](=O)[O-])n3n2)ccnc1CSc1ncccn1` returned a melting point of 143 to 147 °C.

Compound `N=C(N)c1cc2cc(F)c(F)cc2o1` registered a melting point of 178 °C.

`COc1cc2c(cc1OC)C(C=Cc1ccc(N)cc1)=NNC(C)C2` (stereo not drawn) gave a melting point of 152 to 154 °C.

`COC(=O)c1c(C(F)F)nc(C(F)(F)F)c(C(=O)OC)c1CI` returned a melting point of 78 to 79 °C.

For the compound `Cc1cc(OC(C)(C)C(=O)O)cc(C)c1C`, the melting point lay within 77 to 78 °C.

In turn, `COc1ccc(-c2nc3ccc(C=Cc4ccc5nc(-c6ccc(OC)cc6)oc5c4)cc3o2)cc1` displayed a melting point of 162 °C.

On to `CCCCCCCCCCCCCCCCCCNC(=O)OCC(CO)OC(=O)NC` (stereo not drawn), for which the melting point fell in the range of 92 to 93 °C.

`CCO/N=C(\C)[C@H]1CC[C@H]2[C@@H]3CC=C4C[C@@H](O)CC[C@]4(C)[C@H]3CC[C@]12C` registered a melting point of 119 to 121 °C.

With `COCCn1c(C)c(C2(c3ccc(N(C)C)cc3C)OC(=O)c3ccccc32)c2ccccc21` (stereo not drawn), the melting point was 205 to 207 °C.

The compound `O=Cc1csc(N2CCSCC2)n1` gave a melting point of 69 to 71 °C.

As to `Cn1ccc(OC2c3cc(C#N)ccc3OC(C)(C)C2O)cc1=O` (stereo not drawn), the melting point fell in the range of 202 to 203 °C.

`COC(c1ccc(Cl)c2nc3n(c12)CCCN3c1ccc(Cl)cc1C(F)(F)F)C1CC1` (stereo not drawn) displayed a melting point of 208 to 209 °C.

Turning to `CCC(=O)Nc1cccc2c1CCC(NC(=O)CC)C2` (stereo not drawn), the melting point was 270 °C.

`CSC1C(=O)Nc2c(C(=O)c3ccccc3)cccc21` (stereo not drawn) yielded a melting point of 130 °C.

The compound `COc1cc(NC(=O)N2CCOCN2)c(Cl)cc1Cl` gave a melting point of 128 to 130 °C.

`O=C1CCC(=O)N(c2ccc(N3CCN(C4(c5ccc(-c6ccccc6)cc5)C(=O)NC(=O)NC4=O)CC3)cc2)C1` had a melting point of 300 to 301 °C.

`COc1ccc(Oc2ccc(/C=C/C(=O)O)cc2)cc1`: the melting point lay in the range of 165 to 167 °C.

In turn, `COC(=O)c1ccc(OC)nc1F` had a melting point of 81 to 82 °C.

`Cc1cccc(C)c1N(Cn1cc(C(C)C)cn1)C(=O)CCl` showed a melting point of 58 °C.

Regarding `O=c1nc(Cl)cc(-c2ccccc2)n1-c1ccccc1`, the melting point lay within 141 to 143 °C.

Compound `OCc1cc(C(F)(F)F)ccc1Sc1ccccc1` came in with a melting point of 84 °C.

Regarding `CC(C)(C)OC(=O)NCCCn1c2c(c3ccc(NC(=O)C(=O)O)cc3c1=O)C(=O)c1ccccc1-2`, the melting point lay in the range of 267 to 268 °C.

In turn, `CC(C)(S)C(=O)NC(=O)[C@@H](N)CS` displayed a melting point of 124 to 125 °C.

In turn, `Nc1nc2ccccc2n1CCCN1CCCCC1` came in with a melting point of 179 to 181 °C.

Turning to `COc1cccc2c1N(S(=O)(=O)c1ccc(-c3ccc(F)cc3F)cc1)C(C(=O)NCCOc1ccc(C(=O)O)cc1)C2` (stereo not drawn), the melting point is 234 °C.

For the compound `Nc1nc2ccccc2c2c1nc(CCC1CCCC1)n2CCOc1ccccc1`, the melting point is 165 °C.

Compound `COC(=O)CCC(=O)c1ccc(O)cc1` came in with a melting point of 115 to 116 °C.

`O=C1C(=O)c2ccccc2C2=C1SCC1(CCN(CC(O)CN3CCOCC3)CC1)O2` (stereo not drawn): the melting point lay within 75 to 78 °C.

`CCCC1CCC(C2Cc3c4c(c(F)c(F)c3O2)OCCC4)CC1` (stereo not drawn) registered a melting point of 96 °C.

Turning to `C=C(C[C@@H](Cc1ccccc1)C(=O)N1CCOCC1)[C@H](C)[C@H](Cc1ccccc1)C(=O)N1CCOCC1` (relative stereo), the melting point was in the range of 125 to 126 °C.

In turn, `Cn1ccnc1Sc1ccc(Nc2c(C#N)cnc3cc(/C=C/CCN4CCC(N5CCCC5)CC4)ccc23)cc1Cl` came in with a melting point of 214 to 216 °C.

`CCN(CC)C(=O)C(c1ccccc1)n1cnc2[nH]ncc2c1=S` (stereo not drawn) showed a melting point of 143 to 146 °C.
